Reference: article PMC8500670, “A selective WDR5 degrader inhibits acute myeloid leukemia in patient-derived mouse models” (Science translational medicine, 2021)
Read-outs that look alike come from different tables or passages of the source.

Experiments:
Assay in all cases: biochemical
Design in all cases: protein methyltransferase selectivity panel, enzyme activity relative to DMSO controls, single concentration in duplicate
SET8 = target: T1, SET8 (Homo sapiens, UniProt Q9NQR1); conditions: Substrate:=Nucleosomes
T1 construct: gene KMT5A
T1 sequence (Q9NQR1 1-393): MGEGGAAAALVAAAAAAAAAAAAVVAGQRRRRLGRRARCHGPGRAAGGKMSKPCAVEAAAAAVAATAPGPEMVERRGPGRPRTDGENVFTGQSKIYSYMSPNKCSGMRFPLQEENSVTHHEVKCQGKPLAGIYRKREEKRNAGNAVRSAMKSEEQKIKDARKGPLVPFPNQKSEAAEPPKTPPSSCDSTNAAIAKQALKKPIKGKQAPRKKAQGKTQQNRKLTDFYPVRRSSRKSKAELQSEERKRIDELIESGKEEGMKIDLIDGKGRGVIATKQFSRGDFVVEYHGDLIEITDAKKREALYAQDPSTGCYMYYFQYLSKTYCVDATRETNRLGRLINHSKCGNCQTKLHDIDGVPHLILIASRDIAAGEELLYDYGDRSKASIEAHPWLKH
Procedure: (§1) We next assessed selectivity of MS67 against 22 protein methyltransferases (table S2) and a broad panel of common drug targets including 45 kinases (table S3) and 44 G protein–coupled receptors (GPCR), ion channels, and transporters (table S4). […] We subsequently determined that MS67 had moderate binding affinity (Ki = 1.0 ± 0.8 μM) to Sigma 2 receptor (fig. S10).

G9a = target: T2, G9a (Homo sapiens, UniProt Q96KQ7); conditions: Substrate:=Histone H3 1-21
T2 construct: gene EHMT2
T2 sequence (Q96KQ7 1-1210): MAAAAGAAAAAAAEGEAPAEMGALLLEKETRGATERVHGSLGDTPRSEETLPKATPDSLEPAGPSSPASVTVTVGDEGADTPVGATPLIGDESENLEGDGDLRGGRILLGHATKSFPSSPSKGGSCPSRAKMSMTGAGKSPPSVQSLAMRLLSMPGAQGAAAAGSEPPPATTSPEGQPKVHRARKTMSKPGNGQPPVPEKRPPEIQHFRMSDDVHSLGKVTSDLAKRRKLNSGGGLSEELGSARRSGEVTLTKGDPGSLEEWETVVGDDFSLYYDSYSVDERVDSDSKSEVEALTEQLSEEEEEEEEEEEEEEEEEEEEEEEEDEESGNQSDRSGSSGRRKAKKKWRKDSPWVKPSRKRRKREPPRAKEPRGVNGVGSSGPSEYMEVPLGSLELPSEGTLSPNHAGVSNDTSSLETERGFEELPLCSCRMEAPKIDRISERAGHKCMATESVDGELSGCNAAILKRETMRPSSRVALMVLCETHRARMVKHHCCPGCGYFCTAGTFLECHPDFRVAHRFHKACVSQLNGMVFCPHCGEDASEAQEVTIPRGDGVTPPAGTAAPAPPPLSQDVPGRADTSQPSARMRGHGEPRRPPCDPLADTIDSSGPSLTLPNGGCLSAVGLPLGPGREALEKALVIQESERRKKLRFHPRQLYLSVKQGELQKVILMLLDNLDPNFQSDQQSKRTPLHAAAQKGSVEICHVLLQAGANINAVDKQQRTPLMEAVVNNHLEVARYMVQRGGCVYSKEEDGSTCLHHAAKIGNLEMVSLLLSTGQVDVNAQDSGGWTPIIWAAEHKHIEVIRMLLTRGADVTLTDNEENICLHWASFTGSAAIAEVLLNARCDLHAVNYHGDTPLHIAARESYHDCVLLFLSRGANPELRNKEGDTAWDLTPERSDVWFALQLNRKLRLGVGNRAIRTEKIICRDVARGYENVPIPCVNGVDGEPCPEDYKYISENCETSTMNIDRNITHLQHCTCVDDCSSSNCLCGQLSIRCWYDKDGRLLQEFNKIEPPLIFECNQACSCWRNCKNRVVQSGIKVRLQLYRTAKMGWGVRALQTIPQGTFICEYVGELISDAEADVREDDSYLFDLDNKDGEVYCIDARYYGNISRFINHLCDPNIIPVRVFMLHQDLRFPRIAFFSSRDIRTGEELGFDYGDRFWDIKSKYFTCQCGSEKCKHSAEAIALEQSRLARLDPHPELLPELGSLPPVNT
Procedure: as §1

PRMT4 = target: T3, PRMT4 (Homo sapiens, UniProt Q86X55); conditions: Substrate:=Histone H3
T3 construct: gene CARM1
T3 sequence (Q86X55 1-608): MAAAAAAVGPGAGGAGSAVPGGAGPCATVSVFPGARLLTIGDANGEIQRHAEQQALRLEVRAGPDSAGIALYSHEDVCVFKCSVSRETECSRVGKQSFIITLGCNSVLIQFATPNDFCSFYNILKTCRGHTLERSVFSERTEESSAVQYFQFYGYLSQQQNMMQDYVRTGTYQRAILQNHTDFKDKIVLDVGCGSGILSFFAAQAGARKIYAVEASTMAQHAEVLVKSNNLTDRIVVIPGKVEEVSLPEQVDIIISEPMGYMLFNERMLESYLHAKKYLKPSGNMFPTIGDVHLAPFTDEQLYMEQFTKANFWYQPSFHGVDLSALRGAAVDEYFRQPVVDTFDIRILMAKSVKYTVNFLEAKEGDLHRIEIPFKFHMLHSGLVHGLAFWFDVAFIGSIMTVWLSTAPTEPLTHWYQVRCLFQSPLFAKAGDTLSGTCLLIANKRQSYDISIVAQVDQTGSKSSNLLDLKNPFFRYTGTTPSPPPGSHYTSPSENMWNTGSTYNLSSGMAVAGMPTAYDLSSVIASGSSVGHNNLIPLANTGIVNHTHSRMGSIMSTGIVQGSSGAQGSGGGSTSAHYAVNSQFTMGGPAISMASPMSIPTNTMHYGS
Procedure: as §1

[1] = read-out: Enzyme % Activity (relative to DMSO controls) / MS67 / 10 / Data 1:
[2] = read-out: Enzyme % Activity (relative to DMSO controls) / MS67 / 10 / Data 2:

## Cc1ncsc1-c1ccc([C@H](C)NC(=O)[C@@H]2C[C@@H](O)CN2C(=O)[C@@H](NC(=O)CNC(=O)c2ccc(F)c(-c3ccc(N4C[C@@H](C)N(C)[C@@H](C)C4)c(NC(=O)c4c[nH]c(=O)cc4C(F)(F)F)c3)c2)C(C)(C)C)cc1 [MS67]
SET8; [1]
  remaining activity at 10 µM: 112%
SET8; [2]
  remaining activity at 10 µM: 113%
G9a; [1]
  remaining activity at 10 µM: 93%
G9a; [2]
  remaining activity at 10 µM: 90.9%
PRMT4; [1]
  remaining activity at 10 µM: 107%
PRMT4; [2]
  remaining activity at 10 µM: 98.9%
